Consider 13 compounds from ChEMBL document CHEMBL4699449, “Adenosine A Receptor Antagonists for Cancer Immunotherapy” (J Med Chem, 2020).

Data set [1] concerns the target T1, Adenosine receptor A1 (Homo sapiens, UniProt P30542).
T1 sequence (P30542 whole entry): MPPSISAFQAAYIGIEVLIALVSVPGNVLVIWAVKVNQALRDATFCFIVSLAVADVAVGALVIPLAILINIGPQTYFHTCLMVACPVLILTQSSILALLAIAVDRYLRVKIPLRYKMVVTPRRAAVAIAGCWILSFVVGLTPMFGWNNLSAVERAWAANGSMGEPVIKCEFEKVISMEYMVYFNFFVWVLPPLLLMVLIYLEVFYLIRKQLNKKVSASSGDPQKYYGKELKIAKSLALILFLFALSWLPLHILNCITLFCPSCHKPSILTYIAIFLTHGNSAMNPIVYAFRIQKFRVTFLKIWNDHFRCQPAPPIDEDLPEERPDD
Briefly: Antagonist activity at human adenosine A1 receptor expressed in CHO cells by radioligand competition binding assay. In kind it is cell-based.

Data set [2] addresses T2, Adenosine receptor A2b (Homo sapiens, UniProt P29275).
T2 sequence (P29275 whole entry): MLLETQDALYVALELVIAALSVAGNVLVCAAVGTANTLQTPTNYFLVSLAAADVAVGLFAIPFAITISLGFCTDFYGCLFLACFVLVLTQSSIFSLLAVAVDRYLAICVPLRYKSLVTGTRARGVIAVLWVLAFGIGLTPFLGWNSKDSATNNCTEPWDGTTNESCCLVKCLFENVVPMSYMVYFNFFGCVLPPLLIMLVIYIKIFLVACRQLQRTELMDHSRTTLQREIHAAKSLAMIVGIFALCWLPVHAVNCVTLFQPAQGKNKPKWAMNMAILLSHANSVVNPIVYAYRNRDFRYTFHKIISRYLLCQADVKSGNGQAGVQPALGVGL
The experiment in a line: Antagonist activity at human adenosine A2b receptor expressed in HEK293 cells by radioligand competition binding assay. The class given is cell-based.

Data set [3] concerns the target T3, Adenosine receptor A3 (Homo sapiens, UniProt P0DMS8).
T3 sequence (P0DMS8 whole entry): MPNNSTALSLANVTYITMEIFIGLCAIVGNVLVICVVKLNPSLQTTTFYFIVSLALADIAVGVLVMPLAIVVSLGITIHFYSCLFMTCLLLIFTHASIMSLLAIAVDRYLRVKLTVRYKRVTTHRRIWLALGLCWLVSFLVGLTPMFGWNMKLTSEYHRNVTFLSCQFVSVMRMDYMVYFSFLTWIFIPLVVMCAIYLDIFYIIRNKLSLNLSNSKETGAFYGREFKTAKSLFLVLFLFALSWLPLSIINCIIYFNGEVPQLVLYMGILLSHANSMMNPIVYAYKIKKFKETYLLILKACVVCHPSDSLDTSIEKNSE
Briefly: Antagonist activity at human adenosine A3 receptor expressed in HeLa cells by radioligand competition binding assay. The class given is cell-based. (In general: Displacement assays read how much labelled ligand stays bound in the presence of the test substance.)

The target in data set [4] is T4, Adenosine receptor A2a (Mus musculus, UniProt Q60613). The experiment in a line: Antagonist activity at adenosine 2A receptor in BALB/c mouse T cells assessed as reduction in CGS-21680-induced suppression of IL-2 secretion incubated for 24 hrs by ELISA. The class given is cell-based, T cell. For orientation: An ELISA detects its analyte on a solid surface through an enzyme-linked reagent.
T4 sequence (Q60613 whole entry): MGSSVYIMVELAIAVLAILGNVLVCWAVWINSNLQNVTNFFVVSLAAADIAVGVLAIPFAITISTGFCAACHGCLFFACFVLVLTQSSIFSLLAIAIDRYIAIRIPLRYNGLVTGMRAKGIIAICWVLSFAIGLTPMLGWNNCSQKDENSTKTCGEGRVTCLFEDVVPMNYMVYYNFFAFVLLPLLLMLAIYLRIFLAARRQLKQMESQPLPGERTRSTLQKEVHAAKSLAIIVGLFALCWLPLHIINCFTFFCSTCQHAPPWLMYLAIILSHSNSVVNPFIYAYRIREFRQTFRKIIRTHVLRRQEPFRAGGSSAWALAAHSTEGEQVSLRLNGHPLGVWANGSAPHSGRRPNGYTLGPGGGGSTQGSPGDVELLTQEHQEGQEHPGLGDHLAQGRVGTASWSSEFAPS

Data set [5] deals with T4, Adenosine receptor A2a. The experiment in a line: Antagonist activity at adenosine 2A receptor in BALB/c mouse T cells assessed as reduction in CGS-21680-induced suppression of IFN-gamma secretion incubated for 24 hrs by ELISA. The class given is cell-based, T cell.
Data set [6] addresses T5, Adenosine receptor A2a (Homo sapiens, UniProt P29274). Briefly: Antagonist activity at human adenosine 2A receptor expressed in HEK293 cells assessed as reduction in NECA-induced cAMP level incubated for 15 mins by HTRF assay. In kind it is functional, cell-based. (cAMP levels reflect the balance of adenylyl cyclase and phosphodiesterase activity.)
Data set [7] is filed under the species Homo sapiens. Briefly: Selectivity ratio of Ki for human adenosine A1 receptor to Ki for human Adenosine 2A receptor.
The species named for data set [8] is Homo sapiens. The experiment in a line: Selectivity ratio of Ki for human adenosine A3 receptor to Ki for human Adenosine 2A receptor.
The species named for data set [9] is Homo sapiens. Briefly: Selectivity ratio of Ki for human adenosine 2B receptor expressed in HEK293 cells to Ki for human adenosine 2A receptor expressed in HEK293 cells. In kind it is cell-based.
Data set [10] is described as follows: Half life in mouse at 2 mg/kg, iv or 10 mg/kg, po measured up to 24 hrs by LC-MS/MS analysis. The class given is ADME, organism-based. Conditions: in vivo.
Data set [11] has as its target T5, Adenosine receptor A2a. Briefly: Antagonist activity at human adenosine 2A receptor expressed in T-REx-CHO cells preincubated for 1 hr followed by NECA stimulation and measured after 30 mins by Eu-cAMP tracer based TR-FRET assay. The class given is functional, cell-based. Conditions: filed as antagonist, time 1.5 hrs.
The target of data set [12] is T5, Adenosine receptor A2a. The experiment in a line: Antagonist activity at adenosine 2A receptor in human PBMC assessed as reversal of NECA/CD3/CD28-stimulated IL-2 release incubated for 24 hrs.
Data set [13] has as its target T5, Adenosine receptor A2a. The experiment in a line: Antagonist activity at adenosine 2A receptor in human blood assessed as reversal of NECA/LPS-stimulated TNF-alpha release incubated for 5 hrs. In kind it is tissue-based.
Data set [14] is described as follows: Cmax in mouse at 1 mg/kg, iv measured up to 24 hrs by LC-MS/MS analysis. The conditions noted are these: in vivo. In kind it is ADME, organism-based. The arrangement: route intravenous, dose 1 mg/kg, time <=24.
For data set [15], the target named is T5, Adenosine receptor A2a. The experiment in a line: Inhibition of FRET-labelled CA200645 binding to human adenosine 2A receptor expressed in CHO cells incubated for 2 hr by TR-FRET assay. The class given is cell-based.
For data set [16], the target named is T2, Adenosine receptor A2b. The experiment in a line: Inhibition of FRET-labelled CA200645 binding to human adenosine 2B receptor expressed in CHO cells incubated for 2 hr by TR-FRET assay. The class given is cell-based.
Data set [17] has as its target T5, Adenosine receptor A2a. The experiment in a line: Antagonist activity at adenosine 2A receptor in human whole blood assessed as reduction in phosphorylated CREB level preincubated for 20 mins followed by adenosine receptor agonist NECA addition and measured after 30 mins by flow cytometric analysis. The class given is functional, tissue-based.
Data set [18] addresses T5, Adenosine receptor A2a. Briefly: Antagonist activity at human adenosine 2A receptor expressed in HEK293 cells assessed as reduction in cAMP production preincubated for 10 mins followed by 3 nM A2A agonist NECA addition and measured after 30 mins by EU-cAMP tracer based TR-FRET assay. The class given is functional, cell-based.
The target of data set [19] is T5, Adenosine receptor A2a. The experiment in a line: Antagonist activity at human adenosine 2A receptor expressed in HEK293 cells assessed as reduction in cAMP production preincubated for 10 mins followed by 5 nM A2A agonist NECA addition and measured after 30 mins by EU-cAMP tracer based TR-FRET assay. In kind it is functional, cell-based.
The target of data set [20] is T5, Adenosine receptor A2a. The experiment in a line: Antagonist activity at human adenosine 2A receptor expressed in HEK293 cells assessed as reduction in cAMP production preincubated for 10 mins followed by adenosine addition and measured after 30 mins by EU-cAMP tracer based TR-FRET assay. The class given is functional, cell-based.
Data set [21] deals with T5, Adenosine receptor A2a. Briefly: Antagonist activity at adenosine 2A receptor in human peripheral blood lymphocytes assessed as reduction in NECA-stimulated CREB phosphorylation by flow cytometric analysis. In kind it is functional, cell-based, PBL.

A word on the Ki: it is a measure of affinity in units of concentration, obtained from inhibition or displacement. A high value points to a looser hold on the target. The IC50 is the concentration that gives 50% inhibition. As usually defined, the half-life is the time needed for the level to fall by half in the phase considered. By Kb is commonly meant the equilibrium dissociation constant of an antagonist, usually derived from a functional assay. Lower therefore signals a more potent antagonist. Broadly, the Cmax is the highest concentration seen after dosing.

T5 sequence (P29274 whole entry): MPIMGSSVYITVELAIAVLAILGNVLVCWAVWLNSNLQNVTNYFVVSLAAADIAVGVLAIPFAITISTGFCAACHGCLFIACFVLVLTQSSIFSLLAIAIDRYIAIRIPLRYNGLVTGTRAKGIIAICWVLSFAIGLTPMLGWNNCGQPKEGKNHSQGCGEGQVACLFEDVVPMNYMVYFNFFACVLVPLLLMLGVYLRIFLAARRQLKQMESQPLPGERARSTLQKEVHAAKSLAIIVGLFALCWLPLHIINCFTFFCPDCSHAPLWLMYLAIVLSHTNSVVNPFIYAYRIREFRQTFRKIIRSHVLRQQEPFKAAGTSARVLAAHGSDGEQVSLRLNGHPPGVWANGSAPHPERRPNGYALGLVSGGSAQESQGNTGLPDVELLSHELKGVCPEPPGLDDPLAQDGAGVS

Regarding `Nc1nc(-n2cccn2)nc(-n2cccn2)c1Br` [PBF-509], the Ki in data set [1] worked out at 2500 nM; in data set [2] it was 1000 nM; in data set [3], 5000 nM.
In the case of `COc1ccc(-c2cnn(C)c2)c2nc(NC(=O)c3ccc(Cn4ccnc4)cc3)[nH]c12`, the IC50 in data set [4] and in data set [5] was 40 nM throughout.
Regarding `COc1ncc(-c2ccccc2)c2ncc(NC(=O)N3CCC(C)(O)CC3)nc12`, the IC50 in [6] was under 100 nM.
For the compound `COCCOc1ccc(N2CCN(CCn3ncc4c3nc(N)n3nc(-c5ccco5)nc43)CC2)cc1`, the Ratio Ki in data set [7], in [8] and in [9] was 1000 in each case.
Consider `COCCn1cc(C(=O)Nc2nc3c(OC)ccc(N4CCOCC4)c3s2)cn1`, for which, in data set [10], the half-life is 19.9 min.
Consider `COc1ccc(-c2ccccc2)c2ncc(NC(=O)N3CCC(C)(O)CC3)nc12`, for which, in [6], the half-maximal inhibitory concentration (IC50) was under 100 nM. Also, the half-life in [10] is over 120 min.
As to `COCc1cccc(Cn2cc(-c3cc(-c4ccco4)nc(N)n3)nn2)n1`, in [11], the antagonist dissociation constant (Kb) is under 100 nM.
`Cc1cccnc1CNC(=O)c1cnc(-c2ccco2)nc1N`: the concentration for half-maximal inhibition (IC50) was 77 nM in data set [12] and over 200 nM in data set [13].
As for `COCCn1cc(C(=O)Nc2nc3c(OC)ncc(N4CCOCC4)c3s2)cn1`, in [6], the half-maximal inhibitory concentration (IC50) was under 10 nM. This compound showed a half-life in data set [10] of 49 min. In addition, the Cmax in data set [14] was found to be 1390 ng/mL.
`COc1ncc(N2CCOCC2)c2sc(NC(=O)N3CCC(C)(O)CC3)nc12` showed a half-life in data set [10] of 10.3 min. The Cmax in data set [14] came out at 449 ng/mL.
Turning to `Cc1cccnc1CNC(=O)c1c(N)nc(-c2ccco2)nc1OC[C@H](C)O`, the IC50 in data set [12] was 77 nM; in data set [13] it was over 200 nM.
Consider `COc1nc(-c2ncco2)nc(N)c1C(=O)NCc1c(Cl)cccc1Cl`, for which the Ki in [15] was 0.078 nM; in data set [16] it was 5.4 nM. The Ratio Ki in [7] was 230; in data set [8] it was 2490. Besides, the concentration for half-maximal inhibition (IC50) is 17 nM in [17] and over 200 nM in [13].
`NC(=O)Cc1cc(N2CCN(CCn3c(=O)sc4c3nc(N)n3nc(-c5ccco5)nc43)CC2)c(F)cc1F`: the IC50 in data set [18] was 0.5 nM; in data set [19], 2 nM; in data set [20], 49 nM; in [21] it was 20 nM.
